# Test results reported in ChEMBL document CHEMBL1201862, “PubChem BioAssay data set” (2004).
# The source made the active and inactive calls.
# Legend:
# [1] = molecular target: T1, Mannose-6-phosphate isomerase (Homo sapiens, UniProt P34949); experiment: human PMI inhibitors, high substrate, primary screen, biochemical, fluorescence intensity, high mannose 6-phosphate (AID 1220)
# T1 sequence (P34949 whole entry): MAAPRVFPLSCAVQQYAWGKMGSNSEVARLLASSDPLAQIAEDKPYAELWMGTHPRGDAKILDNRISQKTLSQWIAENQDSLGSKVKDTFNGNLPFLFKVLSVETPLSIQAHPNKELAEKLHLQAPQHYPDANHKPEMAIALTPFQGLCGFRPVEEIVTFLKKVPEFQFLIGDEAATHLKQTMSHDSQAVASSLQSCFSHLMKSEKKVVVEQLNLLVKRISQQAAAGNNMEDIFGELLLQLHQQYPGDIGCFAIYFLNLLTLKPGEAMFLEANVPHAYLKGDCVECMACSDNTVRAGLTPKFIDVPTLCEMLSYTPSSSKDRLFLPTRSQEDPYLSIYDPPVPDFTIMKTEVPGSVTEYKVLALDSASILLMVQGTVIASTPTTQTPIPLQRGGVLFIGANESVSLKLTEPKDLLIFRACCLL
# [2] = cytotoxicity toward NIH3T3 fibroblasts, dose response, counter-screen, cell-based, ATP luminescence, mouse fibroblasts (AID 2010); assay type: functional;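 note: cells exposed to compound for about 90 hours before reading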
# [3] = inhibitors of intracellular T. cruzi replication, confirmation, NIH3T3 host cells, beta-gal luminescence (AID 2044); assay type: functional, cell-based;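 note: intracellular parasites grown in NIH/3T3 mouse fibroblasts as host cells; luminescent beta-galactosidase reporter signal from transgenic T. cruzi replicating inside host cells; inhibitors lower the luminescence signal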
# [4] = inhibitors of firefly luciferase expression or activity, dose response, H4 neuroglioma cells, luminescence (AID 1990); assay type: functional, cell-based
# [5] = inhibitors of SNCA 5'UTR-driven reporter translation, confirmation, H4 neuroglioma cells, luminescence (AID 1988); assay type: functional, cell-based
# Protein Tat = Protein Tat (Human immunodeficiency virus type 1 group M subtype B (isolate HXB2)(HIV-1), UniProt P04608); assay type: functional;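 note: tat binding to TAR RNA read out by fluorescence polarization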
# [6] = Luminescence Cell-Based Dose Response HTS to Identify Inhibitors of 5'UTR Stem-Loop Driven Prion Protein mRNA Translation in H4 Neuroglioblastoma Cells. [Related pubchem assays: 1827 (Project Summary), 1813 (Primary HTS)]; assay type: functional
# cells [7] = assay type: functional, cell-based
# [8] = luciferase reporter signal reduction – luminescence, H4-C neuroglioblastoma cells, dose response (AID 2458); assay type: functional, cell-based;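 note: H4 neuroglioblastoma cells stably carrying a luciferase reporter gene fusion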
# [9] = inhibitors of SNCA 5'UTR-driven translation, confirmation, luminescence, H4 neuroglioblastoma cells, dose confirmation (AID 2454); assay type: functional, cell-based;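 note: H4 neuroglioblastoma cells carrying an alpha-synuclein 5'UTR luciferase reporter; potency for inhibition of the luciferase signal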
# cells [10] = experiment: cells
# [11] = molecular target: T2, Short transient receptor potential channel 4 (Mus musculus, UniProt Q9QUQ5); experiment: mouse TRPC4 channel inhibitors, dose response, cell-based, HEK293 TRPC4/mu-opioid, Fluo-4 calcium (AID 434942); assay type: functional;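 note: potency of inhibitors blocking the TRPC4 calcium response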
# T2 sequence (Q9QUQ5 whole entry): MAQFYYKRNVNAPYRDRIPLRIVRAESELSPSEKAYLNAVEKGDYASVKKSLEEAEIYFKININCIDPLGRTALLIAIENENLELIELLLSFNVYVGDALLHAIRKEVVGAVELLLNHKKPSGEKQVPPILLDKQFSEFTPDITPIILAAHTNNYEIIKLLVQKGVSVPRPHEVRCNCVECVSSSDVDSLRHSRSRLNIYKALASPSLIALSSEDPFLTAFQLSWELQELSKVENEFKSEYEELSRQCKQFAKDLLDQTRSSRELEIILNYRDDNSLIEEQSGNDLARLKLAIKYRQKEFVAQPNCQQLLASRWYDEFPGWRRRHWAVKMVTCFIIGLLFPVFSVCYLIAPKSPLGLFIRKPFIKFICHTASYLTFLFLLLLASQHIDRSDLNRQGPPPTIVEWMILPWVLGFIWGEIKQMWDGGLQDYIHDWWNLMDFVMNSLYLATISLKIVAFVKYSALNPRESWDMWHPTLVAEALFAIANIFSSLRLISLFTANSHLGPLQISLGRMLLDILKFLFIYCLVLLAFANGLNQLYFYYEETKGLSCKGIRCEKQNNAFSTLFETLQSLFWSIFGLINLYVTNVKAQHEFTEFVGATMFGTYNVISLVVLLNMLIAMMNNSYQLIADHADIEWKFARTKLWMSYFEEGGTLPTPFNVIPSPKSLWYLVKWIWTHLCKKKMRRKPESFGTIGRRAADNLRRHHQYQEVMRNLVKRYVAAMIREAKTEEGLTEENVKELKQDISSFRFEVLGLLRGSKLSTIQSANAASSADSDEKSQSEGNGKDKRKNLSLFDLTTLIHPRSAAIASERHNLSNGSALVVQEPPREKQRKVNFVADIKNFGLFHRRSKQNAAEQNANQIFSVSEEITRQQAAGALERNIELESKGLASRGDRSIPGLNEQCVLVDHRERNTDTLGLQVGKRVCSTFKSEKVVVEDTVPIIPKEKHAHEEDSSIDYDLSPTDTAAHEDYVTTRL
# [12] = molecular target: Bifunctional protein GlmU (Mycobacterium tuberculosis, UniProt P9WMN3); experiment: Inhibitors of Mycobacterial Glucosamine-1-phosphate acetyl transferase (GlmU). Secondary screen.; set-up: species or system Mycobacterium tuberculosis H37Rv
# [13] = molecular target: Induced myeloid leukemia cell differentiation protein Mcl-1 (Homo sapiens, UniProt Q07820); assay type: functional
# Large T antigen = Large T antigen (Simian virus 40, UniProt P03070); assay type: functional, Betapolyomavirus macacae;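 note: Confirmatory-stage PubChem screen for compounds that inhibit SV40 T antigen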
# [14] = THP-1 cell cytotoxicity, dose response, cytotoxicity control for non-replicating M. tuberculosis project (AID 489025); assay type: functional
# [15] = THP-1 cell cytotoxicity, dose response, cytotoxicity control for Vif-APOBEC3G degradation inhibitor project, THP-1 cells (AID 1117359); assay type: functional; conditions: Human immunodeficiency virus 1, THP-1
# cells [16] = assay type: functional
# [17] = molecular target: T3, Replicative DNA helicase DnaB (Mycobacterium tuberculosis, UniProt P9WMR3); experiment: DnaB intein splicing inhibitors, dose response, biochemical, cell-free fluorescence (AID 449749); assay type: functional
# T3 sequence (P9WMR3 whole entry): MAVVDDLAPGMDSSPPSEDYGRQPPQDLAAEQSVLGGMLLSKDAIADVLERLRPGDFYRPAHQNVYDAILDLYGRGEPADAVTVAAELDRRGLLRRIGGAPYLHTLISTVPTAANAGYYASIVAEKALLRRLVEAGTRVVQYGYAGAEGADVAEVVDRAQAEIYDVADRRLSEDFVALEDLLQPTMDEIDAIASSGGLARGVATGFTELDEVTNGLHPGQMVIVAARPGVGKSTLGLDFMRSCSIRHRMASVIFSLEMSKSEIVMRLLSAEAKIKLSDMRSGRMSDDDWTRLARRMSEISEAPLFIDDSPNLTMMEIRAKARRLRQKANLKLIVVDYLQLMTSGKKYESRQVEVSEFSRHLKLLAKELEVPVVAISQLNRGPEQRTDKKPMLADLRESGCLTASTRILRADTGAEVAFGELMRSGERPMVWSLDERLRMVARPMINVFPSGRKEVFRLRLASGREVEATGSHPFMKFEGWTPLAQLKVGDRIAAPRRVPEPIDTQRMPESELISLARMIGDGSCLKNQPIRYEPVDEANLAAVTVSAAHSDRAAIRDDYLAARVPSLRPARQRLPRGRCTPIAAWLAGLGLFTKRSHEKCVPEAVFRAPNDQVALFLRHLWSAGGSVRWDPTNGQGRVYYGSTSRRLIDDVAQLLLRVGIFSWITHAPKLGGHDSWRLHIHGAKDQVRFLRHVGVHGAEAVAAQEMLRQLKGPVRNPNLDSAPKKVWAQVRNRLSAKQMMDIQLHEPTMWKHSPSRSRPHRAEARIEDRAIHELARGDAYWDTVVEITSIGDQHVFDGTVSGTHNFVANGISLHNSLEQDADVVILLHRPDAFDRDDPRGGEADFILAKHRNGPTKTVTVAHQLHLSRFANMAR
# Genome polyprotein = Genome polyprotein (dengue virus type 2, UniProt P29990); experiment: Dengue-2 NS5 methyltransferase inhibitors, primary screen, biochemical, confirmation dose response (AID 588689); assay type: functional
# Protein RecA = molecular target: T4, Protein RecA (Mycobacterium tuberculosis, UniProt P9WHJ3); experiment: Fluorescence Cell-Free Homogeneous Dose Retest to Identify Inhibitors of RecA-Intein Splicing Activity. [Related pubchem assays (depositor defined):AID2097, AID2223, AID489010, AID492950]; assay type: functional
# T4 sequence (P9WHJ3 whole entry): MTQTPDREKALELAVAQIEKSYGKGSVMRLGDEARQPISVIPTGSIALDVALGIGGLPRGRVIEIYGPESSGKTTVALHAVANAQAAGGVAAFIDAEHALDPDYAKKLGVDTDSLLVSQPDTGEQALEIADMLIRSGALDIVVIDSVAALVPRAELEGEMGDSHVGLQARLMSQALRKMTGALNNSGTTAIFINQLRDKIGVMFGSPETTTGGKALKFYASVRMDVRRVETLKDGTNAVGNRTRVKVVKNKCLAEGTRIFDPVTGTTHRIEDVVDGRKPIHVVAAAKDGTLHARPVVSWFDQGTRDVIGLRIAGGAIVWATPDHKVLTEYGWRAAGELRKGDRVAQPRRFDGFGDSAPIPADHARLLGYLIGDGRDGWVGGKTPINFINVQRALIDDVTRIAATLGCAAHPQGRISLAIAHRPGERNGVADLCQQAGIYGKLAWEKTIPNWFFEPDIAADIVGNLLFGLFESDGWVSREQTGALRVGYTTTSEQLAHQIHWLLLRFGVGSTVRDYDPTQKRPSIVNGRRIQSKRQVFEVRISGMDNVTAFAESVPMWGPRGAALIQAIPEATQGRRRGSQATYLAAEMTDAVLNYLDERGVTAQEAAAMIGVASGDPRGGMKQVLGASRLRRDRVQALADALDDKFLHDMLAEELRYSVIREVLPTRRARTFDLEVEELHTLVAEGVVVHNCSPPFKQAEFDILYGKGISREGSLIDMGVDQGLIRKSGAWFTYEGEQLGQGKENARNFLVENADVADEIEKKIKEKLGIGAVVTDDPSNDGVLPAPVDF
# [18] = inhibitors of Vif binding to APOBEC3G peptide, primary screen, biochemical, TR-FRET, GST-Vif 1-94, biotin-A3G peptide, dose response retest (AID 1117319); assay type: functional;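 note: TR-FRET signal of purified GST-Vif binding a biotinylated A3G peptide; inhibitors lower the FRET signal by blocking Vif and A3G binding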
# [19] = cytotoxicity toward HT-29 cells – cell-based, CellTiter-Glo luminescence, IC50, dose response (AID 1117330); assay type: functional
# [20] = CellTiter-Glo luminescent dose response of DLD-1 viability loss (AID 1117352); assay type: functional
# [21] = SNU-C1 cell viability reduction, dose response, CellTiter-Glo luminescence (AID 1117323); assay type: functional, cell-based
# [22] = RKO cell viability reduction, dose response, CellTiter-Glo luminescence (AID 1117322); assay type: functional
# [23] = HeLa 4N DNA content increase, dose response, cell-based, IC50 (AID 1117351); assay type: functional
# [24] = cytotoxicity toward HCT116 cells – cell-based, CellTiter-Glo luminescence, IC50, dose response (AID 1117332); assay type: functional; conditions: HCT-116
# [25] = Concentration-dependent survival of SW480 colon cancer line, luminescence detection with CellTiter-Glo, half-maximal inhibitory concentration (AID 1117338); assay type: functional
# [26] = HCT116 cell viability decrease, GSK3B pretreatment – CellTiter-Glo, IC50, dose response (AID 1117339); assay type: functional; conditions: HCT-116
# [27] = HeLa 2N DNA content increase, dose response, cell-based, IC50 (AID 1117349); assay type: functional
# [28] = cytotoxicity toward Colo320 cells – cell-based, CellTiter-Glo luminescence, IC50, dose response (AID 1117334); assay type: functional; conditions: COLO 320
# Chain of Bifunctional protein GlmU (P9WMN3 whole entry): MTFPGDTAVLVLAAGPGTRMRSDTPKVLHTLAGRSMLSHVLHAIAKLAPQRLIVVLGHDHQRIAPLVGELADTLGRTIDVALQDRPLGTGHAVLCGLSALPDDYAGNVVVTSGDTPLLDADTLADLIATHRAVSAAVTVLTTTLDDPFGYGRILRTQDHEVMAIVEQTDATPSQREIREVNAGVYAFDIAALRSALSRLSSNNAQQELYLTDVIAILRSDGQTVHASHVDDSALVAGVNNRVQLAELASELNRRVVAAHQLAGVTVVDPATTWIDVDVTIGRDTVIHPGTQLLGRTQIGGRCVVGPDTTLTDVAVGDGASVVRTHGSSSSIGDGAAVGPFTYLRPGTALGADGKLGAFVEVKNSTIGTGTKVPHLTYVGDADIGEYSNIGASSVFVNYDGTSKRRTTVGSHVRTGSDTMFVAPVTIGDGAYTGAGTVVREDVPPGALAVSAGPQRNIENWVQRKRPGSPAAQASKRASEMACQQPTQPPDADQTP
# Chain of Protein Tat (P04608 whole entry): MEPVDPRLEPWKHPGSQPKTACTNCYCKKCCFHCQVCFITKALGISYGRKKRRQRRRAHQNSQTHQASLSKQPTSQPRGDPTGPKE
# Chain of Induced myeloid leukemia cell differentiation protein Mcl-1 (Q07820 whole entry): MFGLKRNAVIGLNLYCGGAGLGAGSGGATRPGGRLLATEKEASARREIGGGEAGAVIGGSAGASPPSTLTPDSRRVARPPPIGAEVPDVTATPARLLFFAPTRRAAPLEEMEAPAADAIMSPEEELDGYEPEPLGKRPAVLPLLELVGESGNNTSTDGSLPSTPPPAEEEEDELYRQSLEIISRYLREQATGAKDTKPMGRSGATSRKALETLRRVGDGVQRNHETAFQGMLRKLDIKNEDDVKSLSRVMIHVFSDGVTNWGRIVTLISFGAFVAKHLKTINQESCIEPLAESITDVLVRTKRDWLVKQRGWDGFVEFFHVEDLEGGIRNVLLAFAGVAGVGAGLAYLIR
# Chain of Large T antigen (P03070 whole entry): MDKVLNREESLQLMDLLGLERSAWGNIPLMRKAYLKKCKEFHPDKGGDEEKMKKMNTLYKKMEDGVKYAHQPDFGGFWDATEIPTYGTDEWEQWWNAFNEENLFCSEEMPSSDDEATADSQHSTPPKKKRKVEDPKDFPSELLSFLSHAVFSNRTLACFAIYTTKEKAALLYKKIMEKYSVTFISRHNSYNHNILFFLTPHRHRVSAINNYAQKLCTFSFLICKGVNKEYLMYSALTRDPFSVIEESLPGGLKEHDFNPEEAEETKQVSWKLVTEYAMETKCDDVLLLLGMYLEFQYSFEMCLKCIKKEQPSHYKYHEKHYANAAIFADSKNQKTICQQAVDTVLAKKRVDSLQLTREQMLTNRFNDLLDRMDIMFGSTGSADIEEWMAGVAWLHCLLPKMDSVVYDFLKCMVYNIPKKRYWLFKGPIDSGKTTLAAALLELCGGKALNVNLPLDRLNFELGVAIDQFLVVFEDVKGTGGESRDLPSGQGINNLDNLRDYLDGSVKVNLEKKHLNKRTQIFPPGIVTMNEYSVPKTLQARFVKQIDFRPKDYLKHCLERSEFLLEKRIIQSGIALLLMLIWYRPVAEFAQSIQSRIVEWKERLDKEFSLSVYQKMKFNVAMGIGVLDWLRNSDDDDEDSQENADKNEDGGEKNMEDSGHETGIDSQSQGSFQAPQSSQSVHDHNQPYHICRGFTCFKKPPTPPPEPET
# Chain of Genome polyprotein (P29990 2492-3391 limits assumed): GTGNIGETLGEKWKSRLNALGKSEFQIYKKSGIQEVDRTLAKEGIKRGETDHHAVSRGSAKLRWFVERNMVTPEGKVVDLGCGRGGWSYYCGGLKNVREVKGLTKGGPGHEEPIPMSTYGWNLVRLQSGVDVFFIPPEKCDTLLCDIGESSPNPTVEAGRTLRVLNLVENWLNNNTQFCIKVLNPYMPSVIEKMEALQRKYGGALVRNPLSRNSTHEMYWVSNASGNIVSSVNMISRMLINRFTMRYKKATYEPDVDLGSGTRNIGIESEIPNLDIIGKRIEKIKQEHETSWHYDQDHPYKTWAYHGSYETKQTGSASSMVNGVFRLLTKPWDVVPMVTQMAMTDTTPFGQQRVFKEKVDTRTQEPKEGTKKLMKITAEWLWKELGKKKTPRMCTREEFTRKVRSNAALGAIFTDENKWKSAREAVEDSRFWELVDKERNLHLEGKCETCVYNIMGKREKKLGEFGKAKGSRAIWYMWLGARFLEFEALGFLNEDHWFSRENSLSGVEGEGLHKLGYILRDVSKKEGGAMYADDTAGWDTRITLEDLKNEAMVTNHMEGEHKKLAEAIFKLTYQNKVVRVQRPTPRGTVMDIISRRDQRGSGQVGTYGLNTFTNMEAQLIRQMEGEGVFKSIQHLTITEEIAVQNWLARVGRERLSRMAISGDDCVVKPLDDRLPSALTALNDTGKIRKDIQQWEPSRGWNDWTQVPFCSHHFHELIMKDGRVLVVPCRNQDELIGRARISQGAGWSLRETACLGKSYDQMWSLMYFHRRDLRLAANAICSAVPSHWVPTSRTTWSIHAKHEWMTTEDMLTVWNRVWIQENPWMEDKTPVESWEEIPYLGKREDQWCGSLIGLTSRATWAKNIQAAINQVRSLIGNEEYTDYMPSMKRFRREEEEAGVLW
structure (smiles),measurement,setting,value
COc1ccccc1CNc1ccc(N2CCCCC2)cc1,IC50,[1],> 50 µM (not active)
same,EC50,[2],> 60 µM (not active)
same,EC50,[3],3.17 µM (active)
CCC(C)Cn1c(O)cc2nn(-c3nc4ccccc4s3)c(=O)c-2c1C (stereo not drawn),EC50,[4],< 0.1 µM (active)
same,EC50,[5],< 0.1 µM (active)
same,IC50,Protein Tat,> 50 µM (active)
same,EC50,[6],0.165 µM (active)
same,EC50,cells [7],0.114 µM (active)
same,EC50,[8],0.058 µM (active)
same,EC50,[9],0.072 µM (active)
Clc1cccc(C[n+]2cc(-c3ccccc3)n3c2CCC3)c1,EC50,cells [10],0.007 µM (active)
same,EC50,[2],> 60 µM (not active)
same,EC50,[3],< 0.1 µM (active)
same,EC50,[11],0.944 µM (active)
O=C1NC(=S)S/C1=C\c1ccc(SCc2ccco2)o1,IC50,[12],17.7 µM (active)
same,IC50,[13],1.53 µM (active)
same,IC50,Large T antigen,6.01 µM (active)
same,CC50,[14],> 40 µM (active)
same,CC50,[15],> 40 µM (active)
COc1cccc(OCCNC(=O)c2cc([N+](=O)[O-])cc([N+](=O)[O-])c2)c1,EC50,cells [10],0.086 µM (active)
same,EC50,[2],> 60 µM (not active)
same,IC50,cells [16],0.36 µM (active)
same,EC50,[3],< 0.1 µM (active)
O=C(O)c1cccc(Nc2cc(Cl)c3nonc3c2[N+](=O)[O-])c1,IC50,[12],131 µM (active)
same,AC50,[17],2.05 µM (active)
same,IC50,Genome polyprotein,10.7 µM (active)
same,EC50,Protein RecA,2.52 µM (active)
COc1ccccc1C1=Nc2cccc3cccc(c23)N1,IC50,Protein Tat,> 100 µM (inconclusive)
same,EC50,[2],> 30 µM (not active)
same,IC50,[13],< 0.4 µM (not active)
same,EC50,[3],6.83 µM (active)
same,CC50,[15],> 40 µM (active)
same,IC50,[18],> 63.3 µM (active)
O=C(CCl)c1ccc(Cl)cc1Cl,IC50,[19],8.52 µM (inactive)
same,IC50,[20],2.07 µM (active)
same,IC50,[21],2.98 µM (active)
same,IC50,[22],4.3 µM (active)
same,IC50,[23],> 10 µM (inactive)
same,IC50,[24],6.3 µM (inactive)
same,IC50,[25],1.25 µM (active)
same,IC50,[26],1.1 µM (active)
same,IC50,[27],0.514 µM (active)
same,IC50,[28],0.53 µM (active)
O=[N+]([O-])c1ccc(Oc2ccc(N=C=S)cc2)cc1 [NITROSCANATE],IC50,[19],1.07 µM (active)
same,IC50,[20],2.1 µM (active)
same,IC50,[21],4.33 µM (active)
same,IC50,[22],2.34 µM (active)
same,IC50,[23],> 10 µM (inactive)
same,IC50,[24],2.77 µM (active)
same,IC50,[25],1.63 µM (active)
same,IC50,[26],1.47 µM (active)
same,IC50,[27],> 10 µM (inactive)
same,IC50,[28],1.46 µM (active)
